Measurements as given in patent publication US7666890B2, “Synthesis and herbicidal activity of 1- (2-substituted benzo[d]thiazol-5-yl)-1H-1,2,4-triazol-5(4H)-one derivatives” (Huazhong Normal University, priority 2007, dated 2010).

What was measured:
Test in all cases: Test of herbicidal activities (greenhouse pot method)
Assay type in all cases: in vivo
Conditions in all cases: single dose 300 g ai./h, treated before/after germination, 15 days later, greenhouse pot
Amaranthus retroflexus = system: Amaranthus retroflexus
Protocol: (§1) Garden soil was collected from regions where no pesticide is used and mixed uniformly with mountain soil and organic humus soil at a volume ratio of 1:1:1.
(§2) Multiple flowerpots each having a diameter of 9.5 cm and a depth of 8 cm were filled with the soil mixture to 3/4 volume. After water was added to the soil and the soil was completely wet, seeds of three grass weeds and three broadleaf weeds were inserted into the flowerpots (10-15 seeds for each weed). After seeding, the seeds were covered with fine oil mixed with sand and having a thickness of 1-3 cm. After the soil absorbed enough water and became saturated, excess water at the bottom of the flowerpot was drained, and the seeds were placed in a greenhouse for growth.
(§3) The weeds were watered every day so as to keep relative humidity of the soil at approximately 80%, growing temperature of 15-30° C., and air humidity above 50%. As the grass weeds grew to a 2-leaf stage and the broadleaf weeds was in a leaf period, spraying operation […] was performed on the stems and leafs. Planting before germination was performed before spraying. Soil processing was performed before the seeds of the weeds emerged.
(§4) Six target weeds comprising three grass weeds: Echinochloa crusgalli, Digiatria sanguinalis, Setaria viridis, along with three broadleaf weeds: Brassica juncea, Amaranthus retroflexus, Chenopodium album were treated before/after germination using a so-called “greenhouse pot” method with a single dose. A treating dose was 300 g ai./h. The process was repeated three times, and a blank control was used.
(§5) A 3WPSHZ-500 type automatic spraying tower with a spraying area of 0.132 m^2, a spray volume of 10 mL, working pressure of 0.2 MPa, and a liquid volume of 40% of maximum was used. After treatment, the weeds were placed in a greenhouse at a temperature of 15-30° C. Reaction symptoms of the weeds were regularly observed, and 15 days later, five reaction levels were determined according to the following inhibition intervals: 90≦A≦100%; 80≦B<90%, 60≦C<80%; 50≦D<60%, E<50%.

Brassica juncea = system: Brassica juncea
Protocol: as §1, §2, §3, §4, §5

Chenopodium album = system: Chenopodium album
Protocol: as §1, §2, §3, §4, §5

Digiatria sanguinalis = system: Digiatria sanguinalis
Protocol: as §1, §2, §3, §4, §5

Echinochloa crusgalli = system: Echinochloa crusgalli
Protocol: as §1, §2, §3, §4, §5

Setaria viridis = system: Setaria viridis
Protocol: as §1, §2, §3, §4, §5

CCS(=O)(=O)c1nc2cc(-n3nc(C)n(C(F)F)c3=O)c(F)cc2s1 [Compound 56]
Herbicidal activity Amaranthus retroflexus (inhibition level) (Amaranthus retroflexus): A (90 ≦ A ≦ 100%) | Herbicidal activity Brassica juncea (inhibition level) (Brassica juncea): A (90 ≦ A ≦ 100%) | Herbicidal activity Chenopodium album (inhibition level) (Chenopodium album): C (60 ≦ C < 80%) | Herbicidal activity Digiatria sanguinalis (inhibition level) (Digiatria sanguinalis): D (50 ≦ D < 60%) | Herbicidal activity Echinochloa crusgalli (inhibition level) (Echinochloa crusgalli): B (80 ≦ B < 90%) | Herbicidal activity Setaria viridis (inhibition level) (Setaria viridis): D (50 ≦ D < 60%)

CC[S+]([O-])c1nc2cc(-n3nc(C)n(C(F)F)c3=O)c(Br)cc2s1 (stereo not drawn) [Compound 109]
Herbicidal activity Amaranthus retroflexus (inhibition level) (Amaranthus retroflexus): B (80 ≦ B < 90%) | Herbicidal activity Brassica juncea (inhibition level) (Brassica juncea): A (90 ≦ A ≦ 100%) | Herbicidal activity Chenopodium album (inhibition level) (Chenopodium album): A (90 ≦ A ≦ 100%) | Herbicidal activity Digiatria sanguinalis (inhibition level) (Digiatria sanguinalis): B (80 ≦ B < 90%) | Herbicidal activity Echinochloa crusgalli (inhibition level) (Echinochloa crusgalli): A (90 ≦ A ≦ 100%) | Herbicidal activity Setaria viridis (inhibition level) (Setaria viridis): B (80 ≦ B < 90%)

Cc1nn(-c2cc3nc(SCc4ccccc4)sc3cc2Cl)c(=O)n1C(F)F [Compound 2]
Herbicidal activity Amaranthus retroflexus (inhibition level) (Amaranthus retroflexus): A (90 ≦ A ≦ 100%) | Herbicidal activity Brassica juncea (inhibition level) (Brassica juncea): B (80 ≦ B < 90%) | Herbicidal activity Chenopodium album (inhibition level) (Chenopodium album): E (E < 50%) | Herbicidal activity Digiatria sanguinalis (inhibition level) (Digiatria sanguinalis): C (60 ≦ C < 80%) | Herbicidal activity Echinochloa crusgalli (inhibition level) (Echinochloa crusgalli): C (60 ≦ C < 80%) | Herbicidal activity Setaria viridis (inhibition level) (Setaria viridis): B (80 ≦ B < 90%)

Cc1nn(-c2cc3nc(SCc4ccc(Cl)cc4)sc3cc2Cl)c(=O)n1C(F)F [Compound 5]
Herbicidal activity Amaranthus retroflexus (inhibition level) (Amaranthus retroflexus): A (90 ≦ A ≦ 100%) | Herbicidal activity Brassica juncea (inhibition level) (Brassica juncea): B (80 ≦ B < 90%) | Herbicidal activity Chenopodium album (inhibition level) (Chenopodium album): E (E < 50%) | Herbicidal activity Digiatria sanguinalis (inhibition level) (Digiatria sanguinalis): B (80 ≦ B < 90%) | Herbicidal activity Echinochloa crusgalli (inhibition level) (Echinochloa crusgalli): C (60 ≦ C < 80%) | Herbicidal activity Setaria viridis (inhibition level) (Setaria viridis): E (E < 50%)

C=CCSc1nc2cc(-n3nc(C)n(C(F)F)c3=O)c(Br)cc2s1 [Compound 88]
Herbicidal activity Amaranthus retroflexus (inhibition level) (Amaranthus retroflexus): A (90 ≦ A ≦ 100%) | Herbicidal activity Brassica juncea (inhibition level) (Brassica juncea): A (90 ≦ A ≦ 100%) | Herbicidal activity Chenopodium album (inhibition level) (Chenopodium album): B (80 ≦ B < 90%) | Herbicidal activity Digiatria sanguinalis (inhibition level) (Digiatria sanguinalis): A (90 ≦ A ≦ 100%) | Herbicidal activity Echinochloa crusgalli (inhibition level) (Echinochloa crusgalli): B (80 ≦ B < 90%) | Herbicidal activity Setaria viridis (inhibition level) (Setaria viridis): D (50 ≦ D < 60%)

Cc1nn(-c2cc3nc(SCc4ccc(Br)cc4F)sc3cc2F)c(=O)n1C(F)F [Compound 22]
Herbicidal activity Amaranthus retroflexus (inhibition level) (Amaranthus retroflexus): B (80 ≦ B < 90%) | Herbicidal activity Brassica juncea (inhibition level) (Brassica juncea): D (50 ≦ D < 60%) | Herbicidal activity Chenopodium album (inhibition level) (Chenopodium album): D (50 ≦ D < 60%) | Herbicidal activity Digiatria sanguinalis (inhibition level) (Digiatria sanguinalis): C (60 ≦ C < 80%) | Herbicidal activity Echinochloa crusgalli (inhibition level) (Echinochloa crusgalli): C (60 ≦ C < 80%) | Herbicidal activity Setaria viridis (inhibition level) (Setaria viridis): C (60 ≦ C < 80%)

Cc1nn(-c2cc3nc([S+](C)[O-])sc3cc2F)c(=O)n1C(F)F (stereo not drawn) [Compound 119]
Herbicidal activity Amaranthus retroflexus (inhibition level) (Amaranthus retroflexus): B (80 ≦ B < 90%) | Herbicidal activity Brassica juncea (inhibition level) (Brassica juncea): E (E < 50%) | Herbicidal activity Chenopodium album (inhibition level) (Chenopodium album): B (80 ≦ B < 90%) | Herbicidal activity Digiatria sanguinalis (inhibition level) (Digiatria sanguinalis): C (60 ≦ C < 80%) | Herbicidal activity Echinochloa crusgalli (inhibition level) (Echinochloa crusgalli): E (E < 50%) | Herbicidal activity Setaria viridis (inhibition level) (Setaria viridis): C (60 ≦ C < 80%)

CSc1nc2cc(-n3nc(C)n(C(F)F)c3=O)c(Br)cc2s1 [Compound 79]
Herbicidal activity Amaranthus retroflexus (inhibition level) (Amaranthus retroflexus): B (80 ≦ B < 90%) | Herbicidal activity Brassica juncea (inhibition level) (Brassica juncea): B (80 ≦ B < 90%) | Herbicidal activity Chenopodium album (inhibition level) (Chenopodium album): C (60 ≦ C < 80%) | Herbicidal activity Digiatria sanguinalis (inhibition level) (Digiatria sanguinalis): A (90 ≦ A ≦ 100%) | Herbicidal activity Echinochloa crusgalli (inhibition level) (Echinochloa crusgalli): B (80 ≦ B < 90%) | Herbicidal activity Setaria viridis (inhibition level) (Setaria viridis): B (80 ≦ B < 90%)

CCC[S+]([O-])c1nc2cc(-n3nc(C)n(C(F)F)c3=O)c(Br)cc2s1 (stereo not drawn) [Compound 110]
Herbicidal activity Amaranthus retroflexus (inhibition level) (Amaranthus retroflexus): B (80 ≦ B < 90%) | Herbicidal activity Brassica juncea (inhibition level) (Brassica juncea): B (80 ≦ B < 90%) | Herbicidal activity Chenopodium album (inhibition level) (Chenopodium album): B (80 ≦ B < 90%) | Herbicidal activity Digiatria sanguinalis (inhibition level) (Digiatria sanguinalis): B (80 ≦ B < 90%) | Herbicidal activity Echinochloa crusgalli (inhibition level) (Echinochloa crusgalli): A (90 ≦ A ≦ 100%) | Herbicidal activity Setaria viridis (inhibition level) (Setaria viridis): C (60 ≦ C < 80%)

Cc1nn(-c2cc3nc(SCc4ccc(Br)cc4)sc3cc2Br)c(=O)n1C(F)F [Compound 26]
Herbicidal activity Amaranthus retroflexus (inhibition level) (Amaranthus retroflexus): B (80 ≦ B < 90%) | Herbicidal activity Brassica juncea (inhibition level) (Brassica juncea): B (80 ≦ B < 90%) | Herbicidal activity Chenopodium album (inhibition level) (Chenopodium album): A (90 ≦ A ≦ 100%) | Herbicidal activity Digiatria sanguinalis (inhibition level) (Digiatria sanguinalis): C (60 ≦ C < 80%) | Herbicidal activity Echinochloa crusgalli (inhibition level) (Echinochloa crusgalli): D (50 ≦ D < 60%) | Herbicidal activity Setaria viridis (inhibition level) (Setaria viridis): C (60 ≦ C < 80%)

CCOC(=O)CSc1nc2cc(-n3nc(C(F)(F)F)n(C(F)F)c3=O)c(F)cc2s1 [Compound 122]
Herbicidal activity Amaranthus retroflexus (inhibition level) (Amaranthus retroflexus): E (E < 50%) | Herbicidal activity Brassica juncea (inhibition level) (Brassica juncea): E (E < 50%) | Herbicidal activity Chenopodium album (inhibition level) (Chenopodium album): E (E < 50%) | Herbicidal activity Digiatria sanguinalis (inhibition level) (Digiatria sanguinalis): E (E < 50%) | Herbicidal activity Echinochloa crusgalli (inhibition level) (Echinochloa crusgalli): C (60 ≦ C < 80%) | Herbicidal activity Setaria viridis (inhibition level) (Setaria viridis): E (E < 50%)

C=CCS(=O)(=O)c1nc2cc(-n3nc(C)n(C(F)F)c3=O)c(Br)cc2s1 [Compound 60]
Herbicidal activity Amaranthus retroflexus (inhibition level) (Amaranthus retroflexus): A (90 ≦ A ≦ 100%) | Herbicidal activity Brassica juncea (inhibition level) (Brassica juncea): A (90 ≦ A ≦ 100%) | Herbicidal activity Chenopodium album (inhibition level) (Chenopodium album): B (80 ≦ B < 90%) | Herbicidal activity Digiatria sanguinalis (inhibition level) (Digiatria sanguinalis): A (90 ≦ A ≦ 100%) | Herbicidal activity Echinochloa crusgalli (inhibition level) (Echinochloa crusgalli): B (80 ≦ B < 90%) | Herbicidal activity Setaria viridis (inhibition level) (Setaria viridis): C (60 ≦ C < 80%)

CC[S+]([O-])c1nc2cc(-n3nc(C)n(C(F)F)c3=O)c(F)cc2s1 (stereo not drawn) [Compound 113]
Herbicidal activity Amaranthus retroflexus (inhibition level) (Amaranthus retroflexus): B (80 ≦ B < 90%) | Herbicidal activity Brassica juncea (inhibition level) (Brassica juncea): A (90 ≦ A ≦ 100%) | Herbicidal activity Chenopodium album (inhibition level) (Chenopodium album): D (50 ≦ D < 60%) | Herbicidal activity Digiatria sanguinalis (inhibition level) (Digiatria sanguinalis): C (60 ≦ C < 80%) | Herbicidal activity Echinochloa crusgalli (inhibition level) (Echinochloa crusgalli): B (80 ≦ B < 90%) | Herbicidal activity Setaria viridis (inhibition level) (Setaria viridis): C (60 ≦ C < 80%)

Cc1nn(-c2cc3nc(SCc4ccc(F)cc4F)sc3cc2F)c(=O)n1C(F)F [Compound 12]
Herbicidal activity Amaranthus retroflexus (inhibition level) (Amaranthus retroflexus): A (90 ≦ A ≦ 100%) | Herbicidal activity Brassica juncea (inhibition level) (Brassica juncea): C (60 ≦ C < 80%) | Herbicidal activity Chenopodium album (inhibition level) (Chenopodium album): E (E < 50%) | Herbicidal activity Digiatria sanguinalis (inhibition level) (Digiatria sanguinalis): B (80 ≦ B < 90%) | Herbicidal activity Echinochloa crusgalli (inhibition level) (Echinochloa crusgalli): E (E < 50%) | Herbicidal activity Setaria viridis (inhibition level) (Setaria viridis): B (80 ≦ B < 90%)

Cc1nn(-c2cc3nc(SCc4cccc(F)c4)sc3cc2F)c(=O)n1C(F)F [Compound 19]
Herbicidal activity Amaranthus retroflexus (inhibition level) (Amaranthus retroflexus): A (90 ≦ A ≦ 100%) | Herbicidal activity Brassica juncea (inhibition level) (Brassica juncea): B (80 ≦ B < 90%) | Herbicidal activity Chenopodium album (inhibition level) (Chenopodium album): A (90 ≦ A ≦ 100%) | Herbicidal activity Digiatria sanguinalis (inhibition level) (Digiatria sanguinalis): B (80 ≦ B < 90%) | Herbicidal activity Echinochloa crusgalli (inhibition level) (Echinochloa crusgalli): E (E < 50%) | Herbicidal activity Setaria viridis (inhibition level) (Setaria viridis): C (60 ≦ C < 80%)

Cc1nn(-c2cc3nc(S(=O)(=O)Cc4cccc(Cl)c4)sc3cc2F)c(=O)n1C [Compound 36]
Herbicidal activity Amaranthus retroflexus (inhibition level) (Amaranthus retroflexus): D (50 ≦ D < 60%) | Herbicidal activity Brassica juncea (inhibition level) (Brassica juncea): C (60 ≦ C < 80%) | Herbicidal activity Chenopodium album (inhibition level) (Chenopodium album): D (50 ≦ D < 60%) | Herbicidal activity Digiatria sanguinalis (inhibition level) (Digiatria sanguinalis): C (60 ≦ C < 80%) | Herbicidal activity Echinochloa crusgalli (inhibition level) (Echinochloa crusgalli): C (60 ≦ C < 80%) | Herbicidal activity Setaria viridis (inhibition level) (Setaria viridis): D (50 ≦ D < 60%)
